DC50 and IC50 data for 13 compounds are collected here from patent publication US20240366770A1, “DEGRADATION OF BRUTON'S TYROSINE KINASE (BTK) BY CONJUGATION OF BTK INHIBITORS WITH E3 LIGASE LIGAND AND METHODS OF USE” (BeiGene Switzerland GmbH, priority 2021, published 2024).

One test has as its target T1, BTK (Homo sapiens, UniProt Q06187).
T1 construct: High control=Cell group with added DMSO and without compound, indicating microplate readings without BTK degradation; endogenous in cells; host or cells: TMD-8
In words: BTK degradation in TMD-8 cells (HTRF assay). The note with it: 6 h treatment, IC50 (DC50) of BTK degradation. The class given is cell-based. The method, then:
TMD-8 cells were treated with compounds diluted in 0.2% DMSO, dilution was done according to the following protocol: (1) making 500× stock solution in DMSO from 1 mM by 6-fold dilution, total 8 doses were included; (2) making 2× solution in cell culture medium by transferring 0.5 μl 500× stock solution into 125 μl medium; (3) adding 15 μl of 2× solution to cells for incubation of 6 h.
After 6 h treatment, 10 μl 4× lysis buffer was added to each well; the plate was sealed and incubated for 30 min at room temperature on a plate shaker; Once the cells was lysed, 16 μL of cell lysate were transferred to a PE 384-well HTRF detection plate; 4 μL of pre-mixed HTRF antibodies were added to each well; the plate was covered with a plate sealer, and then spinned at 1000 rpm for 1 min, then incubated overnight at room temperature; the results were read on BMG PheraStar with HTRF protocol (337 nm-665 nm-620 nm).
The IC50 (DC50) value of a compound can be obtained by fitting the following equation
(§1) wherein, X and Y are known values, and IC50, Hillslope, Top and Bottom are the parameters obtained by fitting with software. Y is the inhibition percentage (calculated from the equation), X is the concentration of the compound; IC50 is the concentration of the compound when the 50% inhibition is reached. The smaller the IC50 value is, the stronger the inhibitory ability of the compound is. Vice versa, the higher the IC50 value is, the weaker the ability the inhibitory ability of the compound is; Hillslope represents the slope of the fitted curve, generally around 1 *; Bottom represents the minimum value of the curve obtained by data fitting, which is generally 0%±20%; Top represents the maximum value of the curve obtained by data fitting, which is generally 100%±20%. The experimental data were fitted by calculating and analyzing with Dotmatics data analysis software.
For orientation: In TR-FRET formats the signal depends on donor and acceptor labels being close together.

For a further test, the system named is HEK-293 cells. In words: HEK-293 cytotoxicity detection (CellTiter-Glo). It is filed as cell-based. The note with it: Homo sapiens; HEK-293 cells, 72 h incubation, CellTiter-Glo luminescence, IC50 of cell proliferation inhibition; read-out: HEK293. As for the experimental part: HEK-293 cells were treated with compounds diluted in 0.2% DMSO, dilution was done according to the following protocol: (1) making 500× stock solution in DMSO from 5 mM by 4-fold dilution, total 8 doses were included; (2) making 2× solution in cell culture medium by transferring 0.5 ul 500× stock solution into 125 μl medium; (3) adding 50 μl of 2× solution to cells for incubation of 72 h.
25 μl of the CellTiter-Glo®Reagent [(Promega) -Cat No. G7572] was added to each well in the 96-well plate. The contents were mixed for 2 minutes on an orbital shaker to induce cell lysis. The plate was then allowed to incubate at room temperature for 10 minutes to stabilize luminescent signal. Luminescence was recorded on BMG PheraStar with luminescence protocol.
The IC50 value of a compound can be obtained by fitting the following equation
as §1, with “Wherein,” for “wherein,”
(In general: ATP-based viability assays read luminescence as a measure of living cells.)

The structures appear in SMILES notation. A value given as a limit tells only on which side of the number the result lay.

T1 sequence (Q06187 whole entry): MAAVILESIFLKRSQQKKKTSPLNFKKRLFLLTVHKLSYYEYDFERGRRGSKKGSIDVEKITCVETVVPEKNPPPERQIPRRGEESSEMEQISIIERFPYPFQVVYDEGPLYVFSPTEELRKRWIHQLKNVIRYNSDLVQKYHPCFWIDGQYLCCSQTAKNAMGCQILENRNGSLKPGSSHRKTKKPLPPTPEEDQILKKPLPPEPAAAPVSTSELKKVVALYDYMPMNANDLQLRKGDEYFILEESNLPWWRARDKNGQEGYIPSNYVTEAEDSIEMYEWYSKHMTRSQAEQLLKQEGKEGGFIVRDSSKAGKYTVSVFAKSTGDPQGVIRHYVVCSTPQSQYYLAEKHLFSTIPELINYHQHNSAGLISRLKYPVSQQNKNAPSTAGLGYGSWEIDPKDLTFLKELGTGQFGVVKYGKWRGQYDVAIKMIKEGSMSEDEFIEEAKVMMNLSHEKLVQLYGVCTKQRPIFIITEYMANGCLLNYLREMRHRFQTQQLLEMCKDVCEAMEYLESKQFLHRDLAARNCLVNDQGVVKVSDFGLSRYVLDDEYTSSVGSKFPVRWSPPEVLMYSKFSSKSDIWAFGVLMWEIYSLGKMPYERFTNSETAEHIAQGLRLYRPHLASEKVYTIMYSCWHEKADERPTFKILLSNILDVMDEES

What is called DC50 is the concentration giving 50% degradation. Lower therefore signals a more potent degrader. `Cc1cc(-c2ncnc3[nH]c4cc(N5CCN(C6CC(c7ccc([C@H]8CCC(=O)NC8=O)cc7)C6)CC5)ccc4c23)c(F)cc1[C@@H](C)NC(=O)c1nc(C(C)(C)C)no1` (stereo partly drawn) [Example 26, 3-(tert-butyl)-N—((R)-1-(4-(7-(4-(3-(4-((R)-2,6-dioxopiperidin-3-yl)phenyl)cyclobutyl)piperazin-1-yl)-9H-pyrimido[4,5-b]indol-4-yl)-5-fluoro-2-methylphenyl)ethyl)-1,2,4-oxadiazole-5-carboxamide] registered a DC50 at BTK of 2.2 nM. In the test with HEK-293 cells, the IC50 is more than 10000 nM.

Take `Cc1c([C@@H](C)NC(=O)c2noc(C(C)(C)C)n2)ccc(-c2ncnc3[nH]c4cc(N5CCN(CC6CCN(c7ccc(N8CCC(=O)NC8=O)cc7)CC6)CC5)ccc4c23)c1F` [Example 27, (R)-5-(tert-butyl)-N-(1-(4-(7-(4-((1-(4-(2,4-dioxotetrahydropyrimidin-1(2H)-yl)phenyl)piperidin-4-yl)methyl)piperazin-1-yl)-9H-pyrimido[4,5-b]indol-4-yl)-3-fluoro-2-methylphenyl)ethyl)-1,2,4-oxadiazole-3-carboxamide]: at BTK, half-maximal degradation (DC50) was put at 0.299 nM. The IC50 in the test with HEK-293 cells is more than 10000 nM.

In turn, `Cc1cc(N2CCC(CN3CCN(c4ccc5c(c4)[nH]c4ncnc(-c6ccc([C@@H](C)NC(=O)c7noc(C(C)(C)C)n7)c(C)c6F)c45)CC3)CC2)ccc1N1CCC(=O)NC1=O` [Example 28, (R)-5-(tert-butyl)-N-(1-(4-(7-(4-((1-(4-(2,4-dioxotetrahydropyrimidin-1(2H)-yl)-3-methylphenyl)piperidin-4-yl)methyl)piperazin-1-yl)-9H-pyrimido[4,5-b]indol-4-yl)-3-fluoro-2-methylphenyl)ethyl)-1,2,4-oxadiazole-3-carboxamide] had a DC50 at BTK of 0.309 nM. Besides, in the test with HEK-293 cells, the IC50 is more than 10000 nM.

On BTK, `Cc1c([C@@H](C)NC(=O)c2noc(C(C)(C)C)n2)ccc(-c2ncnc3[nH]c4cc(N5CCN(C6CCN(c7ccc(C8CCC(=O)NC8=O)cc7)CC6)CC5)ccc4c23)c1F` (stereo partly drawn) [Example 29, 5-(tert-butyl)-N-((1R)-1-(4-(7-(4-(1-(4-(2,6-dioxopiperidin-3-yl)phenyl)piperidin-4-yl)piperazin-1-yl)-9H-pyrimido[4,5-b]indol-4-yl)-3-fluoro-2-methylphenyl)ethyl)-1,2,4-oxadiazole-3-carboxamide] registered a DC50 of 3.16 nM. The IC50 in the test with HEK-293 cells was more than 10000 nM.

At BTK, `Cc1c([C@@H](C)NC(=O)c2noc(C(C)(C)C)n2)ccc(-c2ncnc3[nH]c4cc(N5CCN(CC6CC(c7ccc(C8CCC(=O)NC8=O)cc7)C6)CC5)ccc4c23)c1F` (stereo partly drawn) [Example 30, 5-(tert-butyl)-N-((1R)-1-(4-(7-(4-((3-(4-(2,6-dioxopiperidin-3-yl)phenyl)cyclobutyl)methyl)piperazin-1-yl)-9H-pyrimido[4,5-b]indol-4-yl)-3-fluoro-2-methylphenyl)ethyl)-1,2,4-oxadiazole-3-carboxamide] registered a DC50 of 4.55 nM. The IC50 in the test on HEK-293 cells was more than 10000 nM.

`Cc1c([C@@H](C)NC(=O)c2noc(C(C)(C)C)n2)ccc(-c2ncnc3[nH]c4cc(N5CCN(C6CC(c7ccc([C@@H]8CCC(=O)NC8=O)cc7)C6)CC5)ccc4c23)c1F` (stereo partly drawn) [Example 31, 5-(tert-butyl)-N—((R)-1-(4-(7-(4-(3-(4-((S)-2,6-dioxopiperidin-3-yl)phenyl)cyclobutyl)piperazin-1-yl)-9H-pyrimido[4,5-b]indol-4-yl)-3-fluoro-2-methylphenyl)ethyl)-1,2,4-oxadiazole-3-carboxamide]: the DC50 on BTK was 1.43 nM. For the same compound, the IC50 in the test with HEK-293 cells is more than 10000 nM.

`Cc1c([C@@H](C)NC(=O)c2noc(C(C)(C)C)n2)ccc(-c2ncnc3[nH]c4cc(N5CCN(C6CC(c7ccc(N8CCC(=O)NC8=O)cc7)C6)CC5)ccc4c23)c1F` (stereo partly drawn) [Example 33, (R)-5-(tert-butyl)-N-(1-(4-(7-(4-(3-(4-(2,4-dioxotetrahydropyrimidin-1(2H)-yl)phenyl)cyclobutyl)piperazin-1-yl)-9H-pyrimido[4,5-b]indol-4-yl)-3-fluoro-2-methylphenyl)ethyl)-1,2,4-oxadiazole-3-carboxamide]: the DC50 on BTK is 3.67 nM. Besides, in the test on HEK-293 cells, the IC50 is more than 10000 nM.

Regarding `Cc1c([C@@H](C)NC(=O)c2noc(C(C)(C)C)n2)ccc(-c2ncnc3[nH]c4cc(N5CCN(C6CCN(c7cccc(C8CCC(=O)NC8=O)c7)CC6)CC5)ccc4c23)c1F` (stereo partly drawn) [Example 34, 5-(tert-butyl)-N-((1R)-1-(4-(7-(4-(1-(3-(2,6-dioxopiperidin-3-yl)phenyl)piperidin-4-yl)piperazin-1-yl)-9H-pyrimido[4,5-b]indol-4-yl)-3-fluoro-2-methylphenyl)ethyl)-1,2,4-oxadiazole-3-carboxamide], the DC50 on BTK stood at 1.23 nM. The IC50 in the test with HEK-293 cells stood at 1440 nM.

In turn, `Cc1cc(-c2ncnc3[nH]c4cc(N5CCN(CC6CCN(c7ccc(N8CCC(=O)NC8=O)cc7)CC6)CC5)ccc4c23)ccc1[C@@H](C)NC(=O)c1nc(C2(C)CC2)no1` [Example 35, (R)—N-(1-(4-(7-(4-((1-(4-(2,4-dioxotetrahydropyrimidin-1(2H)-yl)phenyl)piperidin-4-yl)methyl)piperazin-1-yl)-9H-pyrimido[4,5-b]indol-4-yl)-2-methylphenyl)ethyl)-3-(1-methylcyclopropyl)-1,2,4-oxadiazole-5-carboxamide] came in with a DC50 on BTK of 0.15 nM. Further, in the test with HEK-293 cells, the IC50 was more than 10000 nM.

On BTK, `Cc1c([C@@H](C)NC(=O)c2noc(C(C)(C)C)n2)ccc(-c2ncnc3[nH]c4cc(N5CCC(CN6CCC(c7ccc(C8CCC(=O)NC8=O)cc7)CC6)CC5)ccc4c23)c1F` (stereo partly drawn) [Example 36, 5-(tert-butyl)-N-((1R)-1-(4-(7-(4-((4-(4-(2,6-dioxopiperidin-3-yl)phenyl)piperidin-1-yl)methyl)piperidin-1-yl)-9H-pyrimido[4,5-b]indol-4-yl)-3-fluoro-2-methylphenyl)ethyl)-1,2,4-oxadiazole-3-carboxamide] registered a DC50 of 0.804 nM. Moreover, the IC50 in the test on HEK-293 cells came to 3410 nM.

Turning to `CC(C)(C)c1noc(C(=O)N[C@@H]2CCc3cc(-c4ncnc5[nH]c6cc(N7CCN(CC8CCN(c9ccc(N%10CCC(=O)NC%10=O)cc9)CC8)CC7)ccc6c45)ccc32)n1` [Example 37, (R)-3-(tert-butyl)-N-(5-(7-(4-((1-(4-(2,4-dioxotetrahydropyrimidin-1(2H)-yl)phenyl)piperidin-4-yl)methyl)piperazin-1-yl)-9H-pyrimido[4,5-b]indol-4-yl)-2,3-dihydro-1H-inden-1-yl)-1,2,4-oxadiazole-5-carboxamide], the DC50 at BTK was determined as 57.6 nM. Moreover, the IC50 with HEK-293 cells was more than 10000 nM.

Regarding `Cc1cc(-c2ncnc3[nH]c4cc(C5CCN(CC6CCN(c7ccc(N8CCC(=O)NC8=O)cc7)CC6)CC5)cnc4c23)ccc1[C@@H](C)NC(=O)c1nc(C(C)(C)C)no1` [Example 38, (R)-3-(tert-butyl)-N-(1-(4-(7-(1-((1-(4-(2,4-dioxotetrahydropyrimidin-1(2H)-yl)phenyl)piperidin-4-yl)methyl)piperidin-4-yl)-9H-pyrido[2′,3′:4,5]pyrrolo[2,3-d]pyrimidin-4-yl)-2-methylphenyl)ethyl)-1,2,4-oxadiazole-5-carboxamide], it took 0.395 nM to reach half-maximal degradation at BTK (DC50). For the same compound, the IC50 in the test on HEK-293 cells turned out to be 3460 nM.

For `Cc1cc(-c2ncnc3[nH]c4nc(C5CCN(CC6CCN(c7ccc(N8CCC(=O)NC8=O)cc7)CC6)CC5)ccc4c23)ccc1[C@@H](C)NC(=O)c1nc(C(C)(C)C)no1` [Example 39, (R)-3-(tert-butyl)-N-(1-(4-(7-(1-((1-(4-(2,4-dioxotetrahydropyrimidin-1(2H)-yl)phenyl)piperidin-4-yl)methyl)piperidin-4-yl)-9H-pyrido[3′,2′:4,5]pyrrolo[2,3-d]pyrimidin-4-yl)-2-methylphenyl)ethyl)-1,2,4-oxadiazole-5-carboxamide], on BTK, the DC50 amounted to 0.725 nM. Further, the IC50 in the test on HEK-293 cells is 4020 nM.
